What was measured:
[1] = tested on: HIV-1 RT; conditions: cited from earlier work
[2] = biological target: T1, Human FPPS (farnesyl diphosphate synthase) (Homo sapiens, UniProt P14324); test: FPPS inhibition; type: biochemical
T1 sequence (P14324 1-419): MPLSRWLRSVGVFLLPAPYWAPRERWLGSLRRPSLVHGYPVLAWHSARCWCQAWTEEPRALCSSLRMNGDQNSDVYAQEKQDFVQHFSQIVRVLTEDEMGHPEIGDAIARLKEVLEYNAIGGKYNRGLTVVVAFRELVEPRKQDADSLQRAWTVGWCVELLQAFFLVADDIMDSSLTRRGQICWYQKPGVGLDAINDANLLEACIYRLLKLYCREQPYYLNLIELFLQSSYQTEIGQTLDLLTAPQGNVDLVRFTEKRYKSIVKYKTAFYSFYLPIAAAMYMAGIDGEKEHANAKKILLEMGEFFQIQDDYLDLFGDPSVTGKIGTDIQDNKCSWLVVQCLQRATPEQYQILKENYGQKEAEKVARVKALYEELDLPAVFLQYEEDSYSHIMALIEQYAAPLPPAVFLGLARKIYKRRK

[3] = tested on: MCF-7, SF-268, NCI-H460; test: Human cell growth inhibition, three cell lines together; type: cell-based; conditions: read-out: IC50 averaged over the three cell lines investigated

Structure (SMILES) | IC50 [3] | further results
NCCC(O)(P(=O)(O)O)P(=O)(O)O [Compound 4, pamidronate] |  | inhibition of the phosphorolytic activity of RT (in words) [1]: competitively inhibited
O=P(O)(O)C(O)(Cc1ccc(Cl)c(Cl)c1)P(=O)(O)O [Compound 5] |  | IC50 [2]: 8.5 µM
O=P(O)(O)C(O)(Cn1ccnc1)P(=O)(O)O [Compound 36, zoledronate] | ~15 µM | 
O=P(O)(O)C(Nc1cccc(-c2ccccc2)c1)P(=O)(O)O [Compound 3] | ~229 µM | activity in inhibiting NRTI excision (in words) ([1]; previous work ref 11): some activity
O=P(O)(O)C(O)(Cc1cnc2ccccn12)P(=O)(O)O [Compound 44, minodronate] | ~5 µM | 
